Source: patent publication US7781591B2, “Substituted 3-cyanopyridines as protein kinase inhibitors” (Wyeth LLC, priority 2006, dated 2010)
pIC50: −log10 of the molar value.

These compounds were tested against T1, human PKCθ full length enzyme (Homo sapiens, UniProt Q04759) (assay: PKCθ IMAP assay (fluorescence polarization)). Details: human PKCθ full length enzyme, IMAP; average value; read-out: IC50 PKCθ IMAP.
T1 construct: human PKCθ full length enzyme (Panvera Cat# P2996); purchased Panvera P2996
T1 sequence (Q04759 whole entry): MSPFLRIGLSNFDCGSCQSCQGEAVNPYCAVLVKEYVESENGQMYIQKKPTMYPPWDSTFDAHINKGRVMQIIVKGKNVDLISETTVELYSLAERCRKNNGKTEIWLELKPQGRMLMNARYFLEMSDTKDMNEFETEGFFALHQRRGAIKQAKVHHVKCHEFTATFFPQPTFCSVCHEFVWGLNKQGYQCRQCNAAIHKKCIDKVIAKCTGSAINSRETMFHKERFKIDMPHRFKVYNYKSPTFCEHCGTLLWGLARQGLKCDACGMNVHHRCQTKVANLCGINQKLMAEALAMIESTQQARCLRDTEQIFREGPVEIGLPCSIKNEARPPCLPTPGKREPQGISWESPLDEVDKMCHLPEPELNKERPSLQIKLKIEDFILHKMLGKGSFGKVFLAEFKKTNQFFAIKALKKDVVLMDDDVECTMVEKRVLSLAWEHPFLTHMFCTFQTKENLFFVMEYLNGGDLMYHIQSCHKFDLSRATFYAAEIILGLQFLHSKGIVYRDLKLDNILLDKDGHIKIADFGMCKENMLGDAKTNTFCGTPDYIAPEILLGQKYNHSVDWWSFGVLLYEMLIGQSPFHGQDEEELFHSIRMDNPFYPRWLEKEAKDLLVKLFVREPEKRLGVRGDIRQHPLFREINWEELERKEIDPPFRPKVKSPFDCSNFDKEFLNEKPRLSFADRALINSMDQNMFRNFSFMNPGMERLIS
Type: biochemical

Structure (SMILES)	pIC50
Cc1c(Nc2c(C#N)cncc2-c2cccc(CN3CCOCC3)c2)ccc2[nH]ccc12 [Compound 456, 4-[(4-methyl-1H-indol-5-yl)amino]-5-[3-(morpholin-4-ylmethyl)phenyl]nicotinonitrile]	7.64
Cc1c(Nc2c(C#N)cncc2-c2cccc(CN(C)C)c2)ccc2[nH]ccc12 [Compound 457, 5-{3-[(dimethylamino)methyl]phenyl}-4-[(4-methyl-1H-indol-5-yl)amino]nicotinonitrile]	8.15
N#Cc1cncc(-c2ccc(OC[C@H](N)Cc3ccccc3)cc2)c1Nc1cccc2[nH]ccc12 [Compound 458, 5-(4-{[(2R)-2-amino-3-phenylpropyl]oxy}phenyl)-4-(1H-indol-4-ylamino)nicotinonitrile]	7.85
Cc1c(Nc2c(C#N)cncc2-c2ccc(CN3CCN(C)CC3)cc2F)ccc2[nH]ccc12 [Compound 459, 5-{2-fluoro-4-[(4-methylpiperazin-1-yl)methyl]phenyl}-4-[(4-methyl-1H-indol-5-yl)amino]nicotinonitrile]	8.22
Cc1c(Nc2c(C#N)cncc2-c2cc3cc(CN4CCCCC4)ccc3o2)ccc2[nH]ccc12 [Compound 461, 4-[(4-methyl-1H-indol-5-yl)amino]-5-[5-(piperidin-1-ylmethyl)-1-benzofuran-2-yl]nicotinonitrile]	9.00
Cc1c(Nc2c(C#N)cncc2-c2cc3cc(CN4CCN(C)CC4)ccc3o2)ccc2[nH]ccc12 [Compound 462, 4-[(4-methyl-1H-indol-5-yl)amino]-5-{5-[(4-methylpiperazin-1-yl)methyl]-1-benzofuran-2-yl}nicotinonitrile]	9.70
Cc1c(Nc2c(C#N)cncc2-c2ccc(CN3CCN(C)CC3)s2)ccc2[nH]ccc12 [Compound 464, 4-[(4-methyl-1H-indol-5-yl)amino]-5-{5-[(4-methylpiperazin-1-yl)methyl]-2-thienyl}nicotinonitrile]	8.22
Cc1c(Nc2c(C#N)cncc2-c2cc3cc(C=O)ccc3o2)ccc2[nH]ccc12 [Compound 465, 5-(5-formyl-1-benzofuran-2-yl)-4-[(4-methyl-1H-indol-5-yl)amino]nicotinonitrile]	9.00
Cc1c(Nc2c(C#N)cncc2-c2oc3ccccc3c2C)ccc2[nH]ccc12 [Compound 466, 5-(3-methyl-1-benzofuran-2-yl)-4-[(4-methyl-1H-indol-5-yl)amino]nicotinonitrile]	7.77
Cc1c(Nc2c(C#N)cncc2-c2ccncc2)ccc2[nH]ccc12 [Compound 467, 4-[(4-methyl-1H-indol-5-yl)amino]-3,4′-bipyridine-5-carbonitrile]	7.44
Cc1c(Nc2c(C#N)cncc2-c2ccc(CN3CCN(C)CC3)o2)ccc2[nH]ccc12 [Compound 468, 4-[(4-methyl-1H-indol-5-yl)amino]-5-{5-[(4-methylpiperazin-1-yl)methyl]-2-furyl}nicotinonitrile]	8.40
Cc1c(Nc2c(C#N)cncc2-c2ccnc(Cl)c2)ccc2[nH]ccc12 [Compound 469, 2′-chloro-4-[(4-methyl-1H-indol-5-yl)amino]-3,4′-bipyridine-5-carbonitrile]	7.51
Cc1c(Nc2c(C#N)cncc2-c2ccc(OCCN3CCN(C)CC3)cc2Cl)ccc2[nH]ccc12 [Compound 470, 5-{2-chloro-4-[2-(4-methylpiperazin-1-yl)ethoxy]phenyl}-4-[(4-methyl-1H-indol-5-yl)amino]nicotinonitrile]	6.97
Cc1c(Nc2c(C#N)cncc2-c2cccnc2Cl)ccc2[nH]ccc12 [Compound 471, 2′-chloro-4-[(4-methyl-1H-indol-5-yl)amino]-3,3′-bipyridine-5-carbonitrile]	6.81
Cc1c(Nc2c(C#N)cncc2-c2ccc(OCCCN3CCN(C)CC3)cc2)ccc2[nH]ccc12 [Compound 472, 4-[(4-methyl-1H-indol-5-yl)amino]-5-{4-[3-(4-methylpiperazin-1-yl)propoxy]phenyl}nicotinonitrile]	7.72
Cc1c(Nc2c(C#N)cncc2-c2ccc(OCCCN3CCOCC3)cc2)ccc2[nH]ccc12 [Compound 473, 4-[(4-methyl-1H-indol-5-yl)amino]-5-[4-(3-morpholin-4-ylpropoxy)phenyl]nicotinonitrile]	7.62
Cc1c(Nc2c(C#N)cncc2-c2ccc(OCCCN3CCCCC3)cc2)ccc2[nH]ccc12 [Compound 474, 4-[(4-methyl-1H-indol-5-yl)amino]-5-[4-(3-piperidin-1-ylpropoxy)phenyl]nicotinonitrile]	7.89
Cc1c(Nc2c(C#N)cncc2-c2ccc(OCCCN(C)C)cc2)ccc2[nH]ccc12 [Compound 475, 5-{4-[3-(dimethylamino)propoxy]phenyl}-4-[(4-methyl-1H-indol-5-yl)amino]nicotinonitrile]	8.05
COCCOc1ccc(-c2cncc(C#N)c2Nc2ccc3[nH]ccc3c2C)cc1OCCOC [Compound 477, 5-[3,4-bis(2-methoxyethoxy)phenyl]-4-[(4-methyl-1H-indol-5-yl)amino]nicotinonitrile]	7.14

Structure (SMILES)	pIC50
COCCOc1ccc(-c2cncc(C#N)c2Nc2ccc3[nH]ccc3c2C)cc1OC [Compound 478, 5-[3-methoxy-4-(2-methoxyethoxy)phenyl]-4-[(4-methyl-1H-indol-5-yl)amino]nicotinonitrile]	7.96
Cc1c(Nc2c(C#N)cncc2-c2cc3cc(CO)ccc3o2)ccc2[nH]ccc12 [Compound 481, 5-[5-(hydroxymethyl)-1-benzofuran-2-yl]-4-[(4-methyl-1H-indol-5-yl)amino]nicotinonitrile]	9.68
COCCOc1ccc(-c2cncc(C#N)c2Nc2ccc3[nH]ccc3c2C)cc1 [Compound 482, 5-[4-(2-methoxyethoxy)phenyl]-4-[(4-methyl-1H-indol-5-yl)amino]nicotinonitrile]	7.96
COCCOc1cccc(-c2cncc(C#N)c2Nc2ccc3[nH]ccc3c2C)c1 [Compound 483, 5-[3-(2-methoxyethoxy)phenyl]-4-[(4-methyl-1H-indol-5-yl)amino]nicotinonitrile]	7.44
CN1CCN(Cc2ccc3oc(-c4cncc(C#N)c4Nc4ccc5[nH]ccc5c4)cc3c2)CC1 [Compound 485, 4-(1H-indol-5-ylamino)-5-{5-[(4-methylpiperazin-1-yl)methyl]-1-benzofuran-2-yl}nicotinonitrile]	8.30
Cc1c(Nc2c(C#N)cncc2-c2ccc(CN3CCN(C4CCCC4)CC3)o2)ccc2[nH]ccc12 [Compound 486, 5-{5-[(4-cyclopentylpiperazin-1-yl)methyl]-2-furyl}-4-[(4-methyl-1H-indol-5-yl)amino]nicotinonitrile]	8.40
Cc1c(Nc2c(C#N)cncc2-c2ccc(CN3CCS(=O)(=O)CC3)o2)ccc2[nH]ccc12 [Compound 487, 5-{5-[(1,1-dioxidothiomorpholin-4-yl)methyl]-2-furyl}-4-[(4-methyl-1H-indol-5-yl)amino]nicotinonitrile]	7.80
COc1ccc(-c2cncc(C#N)c2Nc2cnc3[nH]ccc3c2)cc1OC [Compound 488, 5-(3,4-dimethoxyphenyl)-4-(1H-pyrrolo[2,3-b]pyridin-5-ylamino)nicotinonitrile]	5.69
Cc1c(Nc2c(C#N)cncc2-c2ccc(OCCCCCl)cc2)ccc2[nH]ccc12 [Compound 490, 5-[4-(4-chlorobutoxy)phenyl]-4-[(4-methyl-1H-indol-5-yl)amino]nicotinonitrile]	7.29
Cc1c(Nc2c(C#N)cncc2-c2ccc(OCCCCN3CCN(C)CC3)cc2)ccc2[nH]ccc12 [Compound 491, 4-[(4-methyl-1H-indol-5-yl)amino]-5-{4-[4-(4-methylpiperazin-1-yl)butoxy]phenyl}nicotinonitrile]	7.82
COCCOc1ccc(-c2cncc(C#N)c2Nc2cnc3[nH]ccc3c2Cl)cc1OC [Compound 492, 4-[(4-chloro-1H-pyrrolo[2,3-b]pyridin-5-yl)amino]-5-[3-methoxy-4-(2-methoxyethoxy)phenyl]nicotinonitrile]	7.21
Cc1cc2[nH]ccc2cc1Nc1c(C#N)cncc1-c1ccc(OCCN2CCN(C)CC2)cc1 [Compound 496, 4-[(6-methyl-1H-indol-5-yl)amino]-5-{4-[2-(4-methylpiperazin-1-yl)ethoxy]phenyl}nicotinonitrile]	7.48
Cc1cc2[nH]ccc2cc1Nc1c(C#N)cncc1-c1cc2cc(CN3CCN(C)CC3)ccc2o1 [Compound 497, 4-[(6-methyl-1H-indol-5-yl)amino]-5-{5-[(4-methylpiperazin-1-yl)methyl]-1-benzofuran-2-yl}nicotinonitrile]	8.15
COc1ccc(-c2cncc(C#N)c2Nc2cc(Cl)c3[nH]ccc3c2C)cc1OC [Compound 498, 4-[(7-chloro-4-methyl-1H-indol-5-yl)amino]-5-(3,4-dimethoxyphenyl)nicotinonitrile]	7.80
Cc1cc2[nH]ccc2cc1Nc1c(C#N)cncc1-c1cc2cc(CO)ccc2o1 [Compound 499, 5-[5-(hydroxymethyl)-1-benzofuran-2-yl]-4-[(6-methyl-1H-indol-5-yl)amino]nicotinonitrile]	8.52
CCN(CC)Cc1ccc2oc(-c3cncc(C#N)c3Nc3cc4cc[nH]c4cc3C)cc2c1 [Compound 500, 5-{5-[(diethylamino)methyl]-1-benzofuran-2-yl}-4-[(6-methyl-1H-indol-5-yl)amino]nicotinonitrile]	8.30
Cc1c(Nc2c(C#N)cncc2-c2cccc(OCCCCCl)c2)ccc2[nH]ccc12 [Compound 501, 5-[3-(4-chlorobutoxy)phenyl]-4-[(4-methyl-1H-indol-5-yl)amino]nicotinonitrile]	7.05
Cc1c(Nc2c(C#N)cncc2-c2cccc(OCCCCN3CCN(C)CC3)c2)ccc2[nH]ccc12 [Compound 502, 4-[(4-methyl-1H-indol-5-yl)amino]-5-{3-[4-(4-methylpiperazin-1-yl)butoxy]phenyl}nicotinonitrile]	7.68
Cc1c(Nc2c(C#N)cncc2-c2coc(CN3CCN(C)CC3)c2)ccc2[nH]ccc12 [Compound 503, 4-[(4-methyl-1H-indol-5-yl)amino]-5-{5-[(4-methylpiperazin-1-yl)methyl]-3-furyl}nicotinonitrile]	7.92
